According to the OPERA property sets (Mansouri et al. 2018):

SMILES | logP
CN(Cc1cccc([N+](=O)[O-])c1)N=O | 1.17
CN(Cc1ccc([N+](=O)[O-])cc1)N=O | 0.82
COc1cccc(CN(C)N=O)c1 | 1.6
Cc1cccc(CN(C)N=O)c1 | 1.96
Cc1ccc(CN(C)N=O)cc1 | 2.14
CN(Cc1ccc(F)cc1)N=O | 1.67
CN(Cc1cccc(C(F)(F)F)c1)N=O | 1.99
CN(Cc1ccc(Cl)cc1)N=O | 2.19
CN(Cc1ccccc1)N=O | 1.55
CN(Cc1cccc(Cl)c1)N=O | 1.46
